From patent US10987408B2, “Compositions and methods for modulating toll-like receptor 2 activation” (THE CLEVELAND CLINIC FOUNDATION, priority 2010, dated 2021) come the findings set out here.

Type in all cases: cell-based
Test [1] deals with mouse aortic endothelial cells (MAEC). Description: Mouse aortic ring assay. The protocol: The mouse aortic ring assay was performed as previously described (Mahabeleshwar, G. H. et al., Methods Mol Med. 129:197-208, 2006).
The test system of test [2] is Mouse Lung Microvascular EC (MLEC). Description: MLEC tube formation assay. The conditions noted are these: TLR2^−/− EC. The protocol: Mouse lungs were excised, minced, and digested using a collagenase-dispase reagent (Roche Diagnostic). Digests were strained and the resulting cell suspension was plated on flasks coated with 1 mg/ml fibronectin. Thereafter, endothelial cells were isolated and characterized as described previously (Mahabeleshwar, G. H. et al., Methods Mol Med. 129:197-208, 2006).
(§1) HUVEC or MLEC cells were seeded on Matrigel-coated plates (BD Bioscience). Medium was supplemented with VEGF or protein adducts as indicated, and cells were further incubated at 37° C. for 8 h. Tube formation was observed using a phase contrast inverted microscope, and photographs were taken from each well. The data were quantified by measuring the length of tubes with ImagePro software.

Test [3] concerns HUVEC. The test can be described thus: Cell adhesion assay. The protocol: We performed cell adhesion assays as described elsewhere (Byzova, T. V. et al., J Cell Biol. 143(7):2081-2092, 1998). Briefly, 10^4 HUVEC or MLEC cells were added to ligand coated wells of a 96-well plate and incubated for 1 h in the presence of CEP-adduct or VEGF as indicated. The cells were washed with and fixed with 4% paraformaldehyde in PBS. Thereafter cells were contrasted by hematoxylin staining and photographs were taken.

Test [4] relates to HUVEC. The test can be described thus: HUVEC tube formation assay. The protocol: as §1

Regarding VEGF, the “EC sprouting, aortic ring” value in test [1] (MyD88^−/− cells) is “not affected by the lack of MyD88”. Also, in test [1] (TLR2^−/− mice), the “EC response, aortic ring sprouting” value is listed as “not affected by the lack of TLR2”. For the same substance, the “EC response, tube formation” value in test [2] is “not affected by the lack of TLR2”.

For the substance Pam3CSK4, in the test with HUVEC [3], the EC adhesion stimulation result is “as effective a stimulator as CEP or VEGF”. For the same substance, the “pro-angiogenic effect, aortic ring sprouting” value in test [1] (wild type / TLR2^+/+ mice) was “induced robust sprouting”. Moreover, the “pro-angiogenic effect, tube formation” value in the test on HUVEC [4] is listed as “as effective a stimulator as CEP or VEGF”.
